Test results published in patent US20180303807A1, “ANDROGEN RECEPTOR LIGANDS” (DUKE UNIVERSITY, priority 2015, published 2018).

Assays:
[1] = target: T1, AR (Homo sapiens, UniProt P10275); test: Reporter gene assay, AR transcriptional (MMTV-Luc) in CV1 cells; assay type: cell-based; conditions: pcDNA-AR + MMTV-Luc, 0.1 nM R1881 plus test compound, 24 hrs; for IC50: read-out: B1 = AR transcriptional IC50 (μM) in CV1 cells
T1 construct: expressed in transfected cells; host or cells: CV1 cells
T1 sequence (P10275 1-920): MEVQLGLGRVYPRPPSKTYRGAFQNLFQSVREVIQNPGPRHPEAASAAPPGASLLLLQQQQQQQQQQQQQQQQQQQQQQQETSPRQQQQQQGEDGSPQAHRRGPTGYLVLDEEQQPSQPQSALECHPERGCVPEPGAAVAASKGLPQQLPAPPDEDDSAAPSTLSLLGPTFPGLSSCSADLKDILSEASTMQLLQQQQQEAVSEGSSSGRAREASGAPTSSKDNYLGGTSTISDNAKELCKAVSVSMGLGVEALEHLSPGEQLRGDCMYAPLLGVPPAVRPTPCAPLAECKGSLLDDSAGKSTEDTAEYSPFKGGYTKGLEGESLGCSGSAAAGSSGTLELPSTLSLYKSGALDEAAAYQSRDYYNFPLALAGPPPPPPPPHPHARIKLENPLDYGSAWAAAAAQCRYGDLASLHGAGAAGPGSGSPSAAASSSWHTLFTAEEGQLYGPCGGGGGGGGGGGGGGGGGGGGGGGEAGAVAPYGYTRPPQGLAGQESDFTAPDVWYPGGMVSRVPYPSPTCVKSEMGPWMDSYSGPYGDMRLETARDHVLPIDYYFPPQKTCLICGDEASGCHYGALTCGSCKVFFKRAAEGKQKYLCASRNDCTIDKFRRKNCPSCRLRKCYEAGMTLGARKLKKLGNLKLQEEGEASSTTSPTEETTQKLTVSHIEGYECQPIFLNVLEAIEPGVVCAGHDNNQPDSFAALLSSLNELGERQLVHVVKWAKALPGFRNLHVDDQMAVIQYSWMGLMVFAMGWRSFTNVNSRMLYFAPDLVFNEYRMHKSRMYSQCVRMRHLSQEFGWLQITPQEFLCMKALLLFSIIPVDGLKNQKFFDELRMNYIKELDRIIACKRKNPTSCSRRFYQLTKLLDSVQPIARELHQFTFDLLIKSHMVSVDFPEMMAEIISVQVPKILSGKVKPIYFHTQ
Method: (§1) Reporter Gene Assay (IC50 determination, Table 2, B1-B3). CV1 cells were seeded into 96-well cell culture plates and transfected with Lipofectin. For AR transcriptional assays, the DNA mixture consisted of pcDNA-AR, MMTV-Luc (androgen responsive reporter gene), and Renilla-Luc (for assessing transfection efficiency and toxicity). Following overnight incubation, cells were induced with hormone (0.1 nM R1881 (synthetic AR agonist) plus increasing concentrations of test compound) for 24 hrs. Cells were lysed and luciferase activity was quantified using Dual Luciferase Reagent (DLR). IC50 determination was assessed using GraphPad Prism software.

[2] = tested on: CV1 cells; test: Toxicity of test compound in the CV1 reporter gene assay (Renilla-Luc); assay type: cell-based
Method: as §1

Row | SMILES | IC50 [1] [µM] | also measured
1 | CC1(C)CC(=O)C2=C(C1)Nc1ccc3nc(C#N)ccc3c1C2c1ccc(F)c(F)c1 (racemic) [Compound A52, (±)-12-(3,4-difluorophenyl)-9,9-dimethyl-11-oxo-7,8,9,10,11,12-hexahydrobenzo[b][4,7]phenanthroline-3-carbonitrile] | > 10 | –
2 | CC1(C)CC2=C(C(c3ccc(F)c(F)c3)c3c(ccc4ncccc34)N2)S(=O)(=O)C1 (racemic) [Compound A53, (±)-12-(3,4-difluorophenyl)-9,9-dimethyl-8,9,10,12-tetrahydro-7H-thiopyrano[2,3-b][4,7]phenanthroline 11,11-dioxide] | > 10 | –
3 | CN1CC(=O)C2=C(C1)Nc1ccc3ncccc3c1C2c1ccc(F)c(F)c1 (racemic) [Compound A54, (±)-12-(3,4-difluorophenyl)-9-methyl-8,9,10,12-tetrahydropyrido[4,3-b][4,7]phenanthrolin-11(7H)-one] | > 10 | –
4 | CC1(C)CC(=O)C2=C(C1)Nc1ccc3nc(C(=O)O)ccc3c1C2c1ccc(F)c(F)c1 (racemic) [Compound A80, (±)-12-(3,4-difluorophenyl)-9,9-dimethyl-11-oxo-7,8,9,10,11,12-hexahydrobenzo[b][4,7]phenanthroline-3-carboxylic acid] | > 10 | –
5 | Cc1ccc2c3c(ccc2n1)NC1=C(C(=O)CC(C)(C)C1)C3c1ccc(F)c(F)c1 (racemic) [Compound A81, (±)-12-(3,4-difluorophenyl)-3,9,9-trimethyl-8,9,10,12-tetrahydrobenzo[b][4,7]phenanthrolin-11(7H)-one] | > 10 | –
6 | CC1(C)CC(=O)C2=C(C1)Nc1ccc3ncncc3c1C2c1ccc(F)c(F)c1 (racemic) [Compound A86, (±)-12-(3,4-difluorophenyl)-9,9-dimethyl-8,9,10,12-tetrahydropyrimido[5,4-a]acridin-11(7H)-one] | 1.8 | –
7 | C[n+]1cccc2c3c(ccc21)NC1=C(C(=O)CC(C)(C)C1)C3c1ccc(F)c(F)c1 (racemic) [Compound A87, (±)-12-(3,4-difluorophenyl)-4,9,9-trimethyl-11-oxo-7,8,9,10,11,12-hexahydrobenzo[b][4,7]phenanthrolin-4-ium iodide] | 1.3 | –
8 | CC1(C)CC(=O)C2=C(C1)Oc1ccc3ccccc3c1C2c1ccc(F)c(F)c1 (racemic) [Compound A89, (±)-12-(3,4-difluorophenyl)-9,9-dimethyl-9,10-dihydro-8H-benzo[a]xanthen-11(12H)-one] | 0.4 | –
9 | CC1(C)CC(=O)C2=C(C1)Nc1cc(N3CCCC3)ccc1C2c1cc2ccccc2s1 (racemic) [Compound A94, (±)-9-(benzo[b]thiophen-2-yl)-3,3-dimethyl-6-(pyrrolidin-1-yl)-3,4,9,10-tetrahydroacridin-1(2H)-one] | > 10 | –
10 | CC1(C)CC(=O)C2=C(C1)Nc1ccc3ccccc3c1C2c1cc2ccccc2s1 (racemic) [Compound A95, (±)-12-(benzo[b]thiophen-2-yl)-9,9-dimethyl-8,9,10,12-tetrahydrobenzo[a]acridin-11(7H)-one] | 0.5 | –
11 | CC1(C)CC(=O)C2=C(C1)Nc1cc(N3CCCC3)ccc1C2c1ccc(Br)s1 (racemic) [Compound A98, (±)-9-(5-bromothiophen-2-yl)-3,3-dimethyl-6-(pyrrolidin-1l-yl)-3,4,9,10-tetrahydroacridin-1(2H)-one] | > 10 | –
12 | CC1(C)CC(=O)C2=C(C1)Nc1ccc3nccnc3c1C2c1ccc(Cl)s1 (racemic) [Compound A99, (±)-12-(5-chlorothiophen-2-yl)-9,9-dimethyl-8,9,10,12-tetrahydropyrazino[2,3-a]acridin-11(7H)-one] | 0.6 | –
13 | Cc1ccc(C2C3=C(CC(C)(C)CC3=O)Nc3ccc4nccnc4c32)s1 (racemic) [Compound A104, (±)-9,9-dimethyl-12-(5-methylthiophen-2-yl)-8,9,10,12-tetrahydropyrazino[2,3-a]acridin-11(7H)-one] | 2 | –
14 | CC1(C)CC(=O)C2=C(C1)Nc1ccc3ncccc3c1C2c1ccc(S(C)(=O)=O)cc1 (centres unmarked) [Compound A36] | – | B1 = AR transcriptional IC50 (μM) in CV1 cells [1]: Inactive
15 | CC1(C)CC(=O)C2=C(C1)Nc1c(ccc3ncccc13)C2c1ccc([N+](=O)[O-])cc1 (centres unmarked) [Compound A44] | – | B1 = AR transcriptional IC50 (μM) in CV1 cells [1]: Inactive
16 | CC(C)C1CC(=O)C2=C(C1)Nc1ccc3ncccc3c1C2c1ccc([N+](=O)[O-])cc1 (centres unmarked) [Compound A45] | 0.3 | –
17 | CC1(C)CC(=O)C2=C(C1)Nc1ccc3cn[nH]c3c1C2c1ccc(F)c(F)c1 (centres unmarked) [Compound A77] | > 10 | –
18 | Cc1ccc(C2C3=C(CC(C)(C)CC3=O)Nc3cc(N4CCCC4)ccc32)s1 (centres unmarked) [Compound A105] | > 10 | –
19 | Cc1ccc(C2C3=C(CC(C)(C)CC3=O)Nc3ccc4ccccc4c32)s1 (centres unmarked) [Compound A106, 9,9-dimethyl-12-(5-methylthiophen-2-yl)-8,9,10,12-tetrahydrobenzo[a]acridin-11(7H)-one] | 0.8 | –
20 | CC1(C)CC(=O)C2=C(C1)Nc1ccc3cn[nH]c3c1C2c1ccc(Cl)s1 (centres unmarked) [Compound A108] | 1.2 | –
21 | CC1(C)CC(=O)C2=C(C1)Nc1ccc3cn[nH]c3c1C2c1ccc(Br)s1 (centres unmarked) [Compound A112] | 3.2 | –
22 | Cc1ccsc1C1C2=C(CC(C)(C)CC2=O)Nc2ccc3nccnc3c21 (centres unmarked) [Compound A115] | > 10 | –

More lines, main results first:

Row | IC50 [1] [µM] | SMILES | also measured
23 | 9.1 | CC1(C)CC(=S)C2=C(C1)Nc1ccc3ncccc3c1C2c1ccc(F)c(F)c1 (racemic) [Compound A82, (±)-12-(3,4-difluorophenyl)-9,9-dimethyl-8,9,10,12-tetrahydrobenzo[b][4,7]phenanthroline-11(7H)-thione] | –
24 | 3.3 | CC1(C)CC(=O)C2=C(C1)Nc1ccc3ncccc3c1C2c1ccc(Cl)c([N+](=O)[O-])c1 (centres unmarked) [Compound A5] | B2 = % Toxicity of test compound (20 μM) ([2]; 20 μM): 24%; B3 = % Toxicity of test compound (60 μM) ([2]; 60 μM): 68%
25 | 0.43 | CC1CC(=O)C2=C(C1)Nc1ccc3ncccc3c1C2c1ccc([N+](=O)[O-])cc1 (centres unmarked) [Compound A26] | –
26 | 1.8 | CC1(C)CC(=O)C2=C(C1)Nc1ccc3ncccc3c1C2c1ccc2nonc2c1 (centres unmarked) [Compound A30] | –
27 | 2.2 | CC1(C)CC(=O)C2=C(C1)Nc1ccc3ncccc3c1C2c1ccc(Cl)c(Cl)c1 (centres unmarked) [Compound A31] | –
28 | 0.4 | CC1(C)CC(=O)C2=C(C1)Nc1ccc3ncccc3c1C2c1ccc(F)c(F)c1 (centres unmarked) [Compound A32] | –
29 | 3.4 | CC1(C)CC(=O)C2=C(C1)Nc1ccc3ncccc3c1C2c1ccc(Br)cn1 (centres unmarked) [Compound A33] | –
30 | 1.9 | CC1(C)CC(=O)C2=C(C1)Nc1ccc3ncccc3c1C2c1ccc(Br)nc1 (centres unmarked) [Compound A34] | –
31 | 58 | Cc1ccc(C2C3=C(CC(C)(C)CC3=O)Nc3ccc4ncccc4c32)nc1 (centres unmarked) [Compound A35] | –
32 | 38 | CC1(C)CC(=O)C2=C(C1)Nc1ccc3ncccc3c1C2c1ccc(C(=O)O)cc1 (centres unmarked) [Compound A37] | –
33 | 3.3 | CC1(C)CC(=O)C2=C(C1)Nc1ccc3ncccc3c1C2c1ccc([N+](=O)[O-])c(O)c1 (centres unmarked) [Compound A38] | –
34 | 52 | CC1(C)CC(=O)C2=C(C1)Nc1ccc3ncccc3c1C2c1ccc(B(O)O)c(F)c1 (centres unmarked) [Compound A39] | –
35 | 1.7 | CC1(C)CC(=O)C2=C(C1)Nc1ccc3ncccc3c1C2c1ccc(F)cc1 (centres unmarked) [Compound A40] | –
36 | 1.9 | CC1(C)CC(=O)C2=C(C1)Nc1ccc3ncccc3c1C2c1ccc(C(F)(F)F)cc1 (centres unmarked) [Compound A41] | –
37 | 9.1 | CC1(C)CC(=O)C2=C(C1)Nc1ccc3cnccc3c1C2c1ccc([N+](=O)[O-])cc1 (centres unmarked) [Compound A43] | –
38 | 9.9 | O=C1CCC2=C1C(c1ccc([N+](=O)[O-])cc1)c1c(ccc3ncccc13)N2 (centres unmarked) [Compound A47] | –
39 | 1.2 | CC1(C)CC(=O)C2=C(C1)Nc1ccc3ncccc3c1C2c1ccc(C#N)cn1 (centres unmarked) [Compound A56] | –
40 | > 10 | CC1(C)CC(=O)C2=C(C1)Nc1ccc3ncccc3c1C2c1cncnc1 (centres unmarked) [Compound A58] | –
41 | > 10 | CC1(C)CC(=O)C2=C(C1)Nc1ccc3ncccc3c1C2c1cnccn1 (centres unmarked) [Compound A65] | –
42 | 4.1 | CC1(C)CC(=O)C2=C(C1)Nc1ccc3ncccc3c1C2c1cccs1 (centres unmarked) [Compound A66, 9,9-dimethyl-12-(thiophen-2-yl)-8,9,10,12-tetrahydrobenzo[b][4,7]phenanthrolin-11(7H)-one] | –
